# Legend:
# green foxtail [1] = test: Test C postemergence; assay type: in vivo, Setaria viridis; conditions: 10 days
# In short: (§1)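 Visual injury ratings on a 0–100 scale (100 = complete control) were made against untreated controls 10 days after treatment in the greenhouse. Compounds, formulated with surfactant in non-phytotoxic solvent, were sprayed on soil preemergence or onto one- to two-leaf plants 2–10 cm tall postemergence.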
# wheat [2] = test: Test C postemergence; assay type: in vivo, Triticum aestivum; conditions: 10 days
# In short: as §1
# corn [3] = test: Test C postemergence; assay type: in vivo, Zea mays; conditions: 10 days
# In short: as §1
# pigweed, palmer [4] = test: Test C preemergence; assay type: in vivo, Amaranthus palmeri; conditions: 0 to 100 scale (0 no effect, 100 complete control)
# In short: as §1
# barnyardgrass [5] = test: Test C preemergence; assay type: in vivo, Echinochloa crusgalli; conditions: 0 to 100 scale (0 no effect, 100 complete control)
# In short: as §1
# ryegrass, Italian [6] = test: Test C preemergence; assay type: in vivo, Lolium multiflorum; conditions: 0 to 100 scale (0 no effect, 100 complete control)
# In short: as §1
# ducksalad = test: Test D flooded paddy test; assay type: in vivo, Heteranthera limosa; conditions: 250 g ai/ha, applied to paddy water, visual rating after 13 to 14 days, scale 0 to 100 (0 no effect, 100 complete control)
# In short: (§2)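 Rating scale 0–100 (0 no effect, 100 complete control), visual, versus controls. Readout at 13–14 days after in-water application to 2-leaf plants in pots flooded 3 cm deep.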
# blackgrass [7] = test: Test C preemergence; assay type: in vivo, Alopecurus myosuroides; conditions: 0 to 100 scale (0 no effect, 100 complete control)
# In short: as §1
# oat, wild [8] = test: Test C postemergence; assay type: in vivo, Avena fatua; conditions: 10 days
# In short: as §1
# pigweed, palmer [9] = test: Test C postemergence; assay type: in vivo, Amaranthus palmeri; conditions: 10 days
# In short: as §1
# blackgrass [10] = test: Test C postemergence; assay type: in vivo, Alopecurus myosuroides; conditions: 10 days
# In short: as §1
# galium = test: Test C postemergence; assay type: in vivo, Galium aparine; conditions: 10 days
# In short: as §1
# sedge, umbrella = test: Test D flooded paddy test; assay type: in vivo, Cyperus difformis; conditions: 250 g ai/ha, applied to paddy water, visual rating after 13 to 14 days, scale 0 to 100 (0 no effect, 100 complete control)
# In short: as §2
# corn [11] = test: Test C preemergence; assay type: in vivo, Zea mays; conditions: 0 to 100 scale (0 no effect, 100 complete control)
# In short: as §1
# soybean [12] = test: Test C postemergence; assay type: in vivo, Glycine max; conditions: 10 days
# In short: as §1
# ragweed [13] = test: Test C preemergence; assay type: in vivo, Ambrosia artemisiifolia; conditions: 0 to 100 scale (0 no effect, 100 complete control)
# In short: as §1
# kochia [14] = test: Test C postemergence; assay type: in vivo, Bassia scoparia; conditions: 10 days
# In short: as §1
# kochia [15] = test: Test C preemergence; assay type: in vivo, Bassia scoparia; conditions: 0 to 100 scale (0 no effect, 100 complete control)
# In short: as §1
# horseweed = test: Test C postemergence; assay type: in vivo, Erigeron canadensis; conditions: 10 days
# In short: as §1
# soybean [16] = test: Test C preemergence; assay type: in vivo, Glycine max; conditions: 0 to 100 scale (0 no effect, 100 complete control)
# In short: as §1
# rice = test: Test D flooded paddy test; assay type: in vivo, Oryza sativa; conditions: 250 g ai/ha, applied to paddy water, visual rating after 13 to 14 days, scale 0 to 100 (0 no effect, 100 complete control)
# In short: as §2
# wheat [17] = test: Test C preemergence; assay type: in vivo, Triticum aestivum; conditions: 0 to 100 scale (0 no effect, 100 complete control)
# In short: as §1
# oat, wild [18] = test: Test C preemergence; assay type: in vivo, Avena fatua; conditions: 0 to 100 scale (0 no effect, 100 complete control)
# In short: as §1
# green foxtail [19] = test: Test C preemergence; assay type: in vivo, Setaria viridis; conditions: 0 to 100 scale (0 no effect, 100 complete control)
# In short: as §1
# barnyardgrass [20] = test: Test C postemergence; assay type: in vivo, Echinochloa crusgalli; conditions: 10 days
# In short: as §1
# ryegrass, Italian [21] = test: Test C postemergence; assay type: in vivo, Lolium multiflorum; conditions: 10 days
# In short: as §1
# barnyardgrass [22] = test: Test D flooded paddy test; assay type: in vivo, Echinochloa crus-galli; conditions: 250 g ai/ha, applied to paddy water, visual rating after 13 to 14 days, scale 0 to 100 (0 no effect, 100 complete control)
# In short: as §2
# ragweed [23] = test: Test C postemergence; assay type: in vivo, Ambrosia artemisiifolia; conditions: 10 days
# In short: as §1
# [24] = 125 g ai/ha, postemergence, 0 to 100 scale, 0 no effect, 100 complete control
# [25] = Postemergence, 500 g ai/ha, visual 0 to 100 scale (0 no effect, 100 complete control)
# [26] = Preemergence, 500 g ai/ha, visual rating after 10 days
# [27] = Test C, preemergence, 125 g ai/ha
compound,measurement,setting,value
Cc1cc(-n2cnc(C(C)C)n2)cc(C(=O)N2C[C@H](C)Oc3c(Cl)cccc32)c1C [Compound 259],"Plant response rating, Foxtail, Green",green foxtail [1]; [24],40
same,"Plant response rating, Foxtail, Green",green foxtail [1]; [25],90
same,"Plant response rating, Wheat",wheat [2]; [24],20
same,"Plant response rating, Wheat",wheat [2]; [25],20
same,"Plant response rating, Corn",corn [3]; [24],10
same,"Plant response rating, Corn",corn [3]; [25],30
same,"Plant response rating, Pigweed, Palmer","pigweed, palmer [4]; [26]",100
same,"Pigweed, Palmer plant response rating","pigweed, palmer [4]; [27]",100
same,"Plant response rating, Barnyardgrass",barnyardgrass [5]; [26],90
same,Barnyardgrass plant response rating,barnyardgrass [5]; [27],30
same,"Plant response rating, Ryegrass, Italian","ryegrass, Italian [6]; [26]",100
same,"Ryegrass, Italian plant response rating","ryegrass, Italian [6]; [27]",90
same,"Plant response rating, Ducksalad (Flood)",ducksalad,0
same,"Plant response rating, Blackgrass",blackgrass [7]; [26],70
same,Blackgrass plant response rating,blackgrass [7]; [27],50
same,"Plant response rating, Oat, Wild","oat, wild [8]; [24]",30
same,"Plant response rating, Oat, Wild","oat, wild [8]; [25]",30
same,"Plant response rating, Pigweed, Palmer","pigweed, palmer [9]; [24]",90
same,"Plant response rating, Pigweed, Palmer","pigweed, palmer [9]; [25]",90
same,"Plant response rating, Blackgrass",blackgrass [10]; [24],70
same,"Plant response rating, Blackgrass",blackgrass [10]; [25],80
same,"Plant response rating, Galium",galium; [24],100
same,"Plant response rating, Galium",galium; [25],100
same,"Plant response rating, Sedge, Umbrella (Flood)","sedge, umbrella",0
same,"Plant response rating, Corn",corn [11]; [26],30
same,Corn plant response rating,corn [11]; [27],30
same,"Plant response rating, Soybean",soybean [12]; [24],100
same,"Plant response rating, Soybean",soybean [12]; [25],100
same,"Plant response rating, Ragweed",ragweed [13]; [26],0
same,Ragweed plant response rating,ragweed [13]; [27],30
same,"Plant response rating, Kochia",kochia [14]; [24],70
same,"Plant response rating, Kochia",kochia [14]; [25],80
same,"Plant response rating, Kochia",kochia [15]; [26],100
same,Kochia plant response rating,kochia [15]; [27],90
same,"Plant response rating, Horseweed",horseweed; [24],0
same,"Plant response rating, Horseweed",horseweed; [25],0
same,"Plant response rating, Soybean",soybean [16]; [26],100
same,Soybean plant response rating,soybean [16]; [27],20
same,"Plant response rating, Rice (Flood)",rice,0
same,"Plant response rating, Wheat",wheat [17]; [26],90
same,Wheat plant response rating,wheat [17]; [27],50
same,"Plant response rating, Oat, Wild","oat, wild [18]; [26]",90
same,"Oat, Wild plant response rating","oat, wild [18]; [27]",60
same,"Plant response rating, Foxtail, Green",green foxtail [19]; [26],100
same,"Foxtail, Green plant response rating",green foxtail [19]; [27],100
same,"Plant response rating, Barnyardgrass",barnyardgrass [20]; [24],20
same,"Plant response rating, Barnyardgrass",barnyardgrass [20]; [25],70
same,"Plant response rating, Ryegrass, Italian","ryegrass, Italian [21]; [24]",30
same,"Plant response rating, Ryegrass, Italian","ryegrass, Italian [21]; [25]",50
same,"Plant response rating, Barnyardgrass (Flood)",barnyardgrass [22],0
same,"Plant response rating, Ragweed",ragweed [23]; [24],20
same,"Plant response rating, Ragweed",ragweed [23]; [25],50
